Measurements published in ChEMBL document CHEMBL3885861, “Open TG-GATES”.

Organism: Rattus norvegicus
Test: Open TG-GATES - Regimen: Single
Format: toxicity, organism-based, Sprague-Dawley
Parameters: regimen Single, gender Male, age 6 weeks
Conditions: in vivo, po, 3 mg/kg, route gavage, dose level Middle; for APTT / Bas / Eos / Fbg / Hb / Ht / Lym / MCH / MCHC / MCV / Mono / Neu / PT / Plat / RBC / Ret / WBC: tissue Blood; for KIDNEY_L / KIDNEY_R / KIDNEY_TOTAL: tissue Kidney; for LIVER: tissue Liver; for A/G / ALP / ALT / AST / BUN / CRE / Ca / Cl / DBIL / GLC / IP / K / LDH / Na / PL / RALB / TBIL / TC / TG / TP / gamma-GTP: tissue Plasma

CN1C(C(=O)Nc2ccccn2)=C(O)c2sc(Cl)cc2S1(=O)=O [LORNOXICAM]
TERMINAL_BW (3 h): 224.5 g | APTT (3 h): 20.3 s | Bas (3 h): 0.6% | Eos (3 h): 1% | Fbg (3 h): 223.8 mg/dL | Hb (3 h): 13.2 g/dL | Ht (3 h): 40% | Lym (3 h): 75.2% | MCH (3 h): 21 pg | MCHC (3 h): 32.9% | MCV (3 h): 63.8 fL | Mono (3 h): 3.4% | Neu (3 h): 19.6% | PT (3 h): 11.7 s | Plat (3 h): 123.9 x10_4/uL | RBC (3 h): 626.4 x10_4/ul | Ret (3 h): 7.2% | WBC (3 h): 135.4 x10_2/uL | KIDNEY_L (3 h): 1 g | KIDNEY_R (3 h): 1 g | KIDNEY_TOTAL (3 h): 2 g | LIVER (3 h): 10.3 g | A/G (3 h): 1.6 | ALP (3 h): 1026.6 IU/L | ALT (3 h): 45.4 IU/L | AST (3 h): 81 IU/L | BUN (3 h): 12.4 mg/dL | CRE (3 h): 0.3 mg/dL | Ca (3 h): 10.8 mg/dL | Cl (3 h): 104 meq/L | DBIL (3 h): 0.074 mg/dL | GLC (3 h): 197 mg/dL | IP (3 h): 9 mg/dL | K (3 h): 4.1 meq/L | LDH (3 h): 163.8 IU/L | Na (3 h): 141.8 meq/L | PL (3 h): 152.8 mg/dL | RALB (3 h): 3.5 g/dL | TBIL (3 h): 0.1 mg/dL | TC (3 h): 82.4 mg/dL | TG (3 h): 73.8 mg/dL | TP (3 h): 5.7 g/dL | gamma-GTP (3 h): 1 IU/L | TERMINAL_BW (6 h): 222.9 g | APTT (6 h): 18.9 s | Bas (6 h): 0.6% | Eos (6 h): 0.8% | Fbg (6 h): 223.6 mg/dL | Hb (6 h): 13.4 g/dL | Ht (6 h): 40.2% | Lym (6 h): 78.4% | MCH (6 h): 21.3 pg | MCHC (6 h): 33.4% | MCV (6 h): 63.7 fL | Mono (6 h): 3.4% | Neu (6 h): 16.8% | PT (6 h): 12.3 s | Plat (6 h): 123.6 x10_4/uL | RBC (6 h): 631.2 x10_4/ul | Ret (6 h): 7.2% | WBC (6 h): 108.8 x10_2/uL | KIDNEY_L (6 h): 1 g | KIDNEY_R (6 h): 1 g | KIDNEY_TOTAL (6 h): 1.9 g | LIVER (6 h): 10 g | A/G (6 h): 1.7 | ALP (6 h): 948.8 IU/L | ALT (6 h): 38.2 IU/L | AST (6 h): 72.8 IU/L | BUN (6 h): 11.8 mg/dL | CRE (6 h): 0.4 mg/dL | Ca (6 h): 10.6 mg/dL | Cl (6 h): 104 meq/L | DBIL (6 h): 0.074 mg/dL | GLC (6 h): 193.6 mg/dL | IP (6 h): 8.6 mg/dL | K (6 h): 4.1 meq/L | LDH (6 h): 159 IU/L | Na (6 h): 140.6 meq/L | PL (6 h): 134.8 mg/dL | RALB (6 h): 3.5 g/dL | TBIL (6 h): 0.2 mg/dL | TC (6 h): 75 mg/dL | TG (6 h): 64.4 mg/dL | TP (6 h): 5.6 g/dL | gamma-GTP (6 h): 0.8 IU/L | TERMINAL_BW (9 h): 223.4 g | APTT (9 h): 18.6 s | Bas (9 h): 0.4% | Eos (9 h): 0.8% | Fbg (9 h): 220.2 mg/dL | Hb (9 h): 13.2 g/dL | Ht (9 h): 39.2% | Lym (9 h): 71.2% | MCH (9 h): 21.6 pg | MCHC (9 h): 33.7% | MCV (9 h): 64.1 fL | Mono (9 h): 3.4% | Neu (9 h): 24% | PT (9 h): 12.2 s | Plat (9 h): 120.6 x10_4/uL | RBC (9 h): 611.6 x10_4/ul | Ret (9 h): 6.8% | WBC (9 h): 110.6 x10_2/uL | KIDNEY_L (9 h): 1 g | KIDNEY_R (9 h): 1 g | KIDNEY_TOTAL (9 h): 2 g | LIVER (9 h): 9.1 g | A/G (9 h): 1.6 | ALP (9 h): 857.8 IU/L | ALT (9 h): 41.2 IU/L | AST (9 h): 69.8 IU/L | BUN (9 h): 10.8 mg/dL | CRE (9 h): 0.3 mg/dL | Ca (9 h): 10.5 mg/dL | Cl (9 h): 103.2 meq/L | DBIL (9 h): 0.064 mg/dL | GLC (9 h): 190 mg/dL | IP (9 h): 9.7 mg/dL | K (9 h): 4.1 meq/L | LDH (9 h): 168.6 IU/L | Na (9 h): 141.2 meq/L | PL (9 h): 125.4 mg/dL | RALB (9 h): 3.2 g/dL | TBIL (9 h): 0.1 mg/dL | TC (9 h): 66.2 mg/dL | TG (9 h): 54.4 mg/dL | TP (9 h): 5.3 g/dL | gamma-GTP (9 h): 1 IU/L | TERMINAL_BW (24 h): 235.4 g | APTT (24 h): 20 s | Bas (24 h): 0.2% | Eos (24 h): 0.2% | Fbg (24 h): 261.6 mg/dL | Hb (24 h): 12.8 g/dL | Ht (24 h): 39% | Lym (24 h): 60.2% | MCH (24 h): 20.8 pg | MCHC (24 h): 32.9% | MCV (24 h): 63.5 fL | Mono (24 h): 3.8% | Neu (24 h): 33.8% | PT (24 h): 12.1 s | Plat (24 h): 122.4 x10_4/uL | RBC (24 h): 614.2 x10_4/ul | Ret (24 h): 6.8% | WBC (24 h): 136.9 x10_2/uL | KIDNEY_L (24 h): 1 g | KIDNEY_R (24 h): 1 g | KIDNEY_TOTAL (24 h): 2.1 g | LIVER (24 h): 11.4 g | A/G (24 h): 1.5 | ALP (24 h): 892.2 IU/L | ALT (24 h): 39.8 IU/L | AST (24 h): 67.6 IU/L | BUN (24 h): 13.2 mg/dL | CRE (24 h): 0.4 mg/dL | Ca (24 h): 10.5 mg/dL | Cl (24 h): 104.8 meq/L | DBIL (24 h): 0.078 mg/dL | GLC (24 h): 203.8 mg/dL | IP (24 h): 7.8 mg/dL | K (24 h): 4.2 meq/L | LDH (24 h): 207.8 IU/L | Na (24 h): 141.8 meq/L | PL (24 h): 133.2 mg/dL | RALB (24 h): 3.1 g/dL | TBIL (24 h): 0.1 mg/dL | TC (24 h): 68.2 mg/dL | TG (24 h): 74.4 mg/dL | TP (24 h): 5.1 g/dL | gamma-GTP (24 h): 0.8 IU/L
